Measurements published in the NIST ThermoML archive (doi:10.1021/je5000296).
Numbers after ± are expanded uncertainties.

Details: Liquid, Ebulliometric method (Recirculating still)

Row | vapor or sublimation pressure (390.48 K) [kPa] | Compound | vapor or sublimation pressure (399.15 K) [kPa]
1 | 101.3 ± 0.91 | CCCCO [butan-1-ol] | 
2 |  | CCCCOC(C)=O [butyl ethanoate] | 101.3 ± 0.91
